# Assay results from PubChem BioAssay AID330 (DTP/NCI, 2004).
# “And” between values parts separate entries of the source, which are not always exact repeats. Equal entries are not always repeated. Toxic doses and inconclusive results are not listed.
# Test system: P388 leukemia ip, CD2F1 mice, survival T/C
# Test: NCI In Vivo Anticancer Drug Screen. Data for tumor model P388 Leukemia (intraperitoneal) in CD2F1 (CDF1) mice
# Conditions: endpoint: median survival time, higher = longer survival
# Outline: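 Mice carrying the transplanted tumor received test compound or vehicle. Survival was recorded in each group, and the value is the treated-group measurement divided by that of the vehicle-treated control group.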
# [1] = dose: 50.0 mg/kg/injection, schedule: Q01DX005 (ip), vehicle: Klucel (hydroxypropylcellulose) (HPC)
# [2] = dose: 100.0 mg/kg/injection, schedule: Q01DX005 (ip), vehicle: Klucel (hydroxypropylcellulose) (HPC)
# [3] = dose: 200.0 mg/kg/injection, schedule: Q01DX005 (ip), vehicle: Klucel (hydroxypropylcellulose) (HPC)
# [4] = dose: 50.0 mg/kg/injection, schedule: Q01DX005 (ip), vehicle: saline
# [5] = dose: 120.0 mg/kg/injection, schedule: Q01DX005 (ip), vehicle: saline with Tween-80
smiles,measurement,setting,value
Cc1cccc(C(=O)O)c1C,T/C,"dose: 50.0 mg/kg/injection, schedule: Q04DX003 (ip), vehicle: gum acacia",100 % of control
same,T/C,"dose: 100.0 mg/kg/injection, schedule: Q04DX003 (ip), vehicle: gum acacia",97 % of control
same,T/C,"dose: 200.0 mg/kg/injection, schedule: Q04DX003 (ip), vehicle: gum acacia",93 % of control
same,T/C,"dose: 400.0 mg/kg/injection, schedule: Q04DX003 (ip), vehicle: gum acacia",98 % of control
Nc1nnc(SCCCCCCCCCCSc2nnc(N)s2)s1,T/C,[1],95 % of control
same,T/C,[2],91 % of control
same,T/C,[3],89 % of control
Cc1c(CCNC=O)ccc2c1[nH]c1ccccc12,T/C,[1],95 % of control
same,T/C,[2],96 % of control
same,T/C,[3],100 % of control
COc1cc(NCCN)c2ncsc2c1,T/C,[4],100 % of control
same,T/C,"dose: 100.0 mg/kg/injection, schedule: Q01DX005 (ip), vehicle: saline",102 % of control
Cc1sc2ccccc2c(=O)c1CCl,T/C,"dose: 60.0 mg/kg/injection, schedule: Q01DX005 (ip), vehicle: saline with Tween-80",111 % of control
same,T/C,[5],104 % of control
NC1=NCN(C2OC(CO)C(O)C2O)C(=O)N1 (stereo not given),T/C,"dose: 3.12 mg/kg/injection, schedule: Q01DX009 (ip), vehicle: saline",110 % of control
same,T/C,"dose: 3.13 mg/kg/injection, schedule: Q01DX009 (ip), vehicle: saline",120 % of control
same,T/C,"dose: 25.0 mg/kg/injection, schedule: Q01DX005 (iv), vehicle: saline",118 % of control
same,T/C,"dose: 25.0 mg/kg/injection, schedule: Q01DX009 (ip), vehicle: saline",150 % of control and 159 % of control
same,T/C,[4],150 % of control
same,T/C,"dose: 120.0 mg/kg/injection, schedule: Q01DX009 (ip), vehicle: saline",190 % of control
same,T/C,"dose: 140.0 mg/kg/injection, schedule: Q01DX009 (ip), vehicle: saline",199 % of control and 203 % of control
same,T/C,"dose: 160.0 mg/kg/injection, schedule: Q01DX009 (ip), vehicle: saline",200 % of control
same,T/C,"dose: 200.0 mg/kg/injection, schedule: Q01DX005 (ip), vehicle: saline",184 % of control
same,T/C,"dose: 400.0 mg/kg/injection, schedule: Q01DX009 (ip), vehicle: saline",88 % of control and 90 % of control
CCSc1ccc(C(=O)C2(C)Cc3ccccc3CN2)cc1 (stereo not given),T/C,"dose: 100.0 mg/kg/injection, schedule: Q01DX001 (ip), vehicle: saline with Tween-80",100 % of control
same,T/C,"dose: 200.0 mg/kg/injection, schedule: Q01DX001 (ip), vehicle: saline with Tween-80",99 % of control
same,T/C,"dose: 400.0 mg/kg/injection, schedule: Q01DX001 (ip), vehicle: saline with Tween-80",98 % of control
COC(=O)C1C(=O)CC2N(C)C1C(C)(C)C2(C)C (stereo not given),T/C,[5],150 % of control
CC(=O)C1=C(C)NC(C)=C(C(C)=O)C1c1ccccc1,T/C,"dose: 100.0 mg/kg/injection, schedule: Q01DX009 (ip), vehicle: saline with Tween-80",100 % of control
same,T/C,"dose: 200.0 mg/kg/injection, schedule: Q01DX009 (ip), vehicle: saline with Tween-80",100 % of control
same,T/C,"dose: 400.0 mg/kg/injection, schedule: Q01DX009 (ip), vehicle: saline with Tween-80",90 % of control
O=C1C2=C(Nc3cc([N+](=O)[O-])ccc3N2)OC1c1ccc(Cl)cc1Cl (stereo not given),T/C,"dose: 30.0 mg/kg/injection, schedule: Q01DX005 (ip), vehicle: Klucel (hydroxypropylcellulose) (HPC)",101 % of control
same,T/C,"dose: 60.0 mg/kg/injection, schedule: Q01DX005 (ip), vehicle: Klucel (hydroxypropylcellulose) (HPC)",89 % of control and 94 % of control
same,T/C,"dose: 120.0 mg/kg/injection, schedule: Q01DX005 (ip), vehicle: Klucel (hydroxypropylcellulose) (HPC)",99 % of control
same,T/C,"dose: 240.0 mg/kg/injection, schedule: Q01DX005 (ip), vehicle: Klucel (hydroxypropylcellulose) (HPC)",111 % of control
